In brackets after ≈: the same amount, converted by molar mass. Where two headings read alike, the source gives them in different places. Bounds are passed on as bounds.

The record followed here is PMC12024264, “Frog Skin Peptides Hylin-a1, AR-23, and RV-23: Promising Tools Against Carbapenem-Resistant Escherichia coli and Klebsiella pneumoniae Infections” (Antibiotics, 2025).

Test in all cases: Antibiotic resistance profile of clinical isolate (Table S1)
For one experiment, the system named is E. coli 3140. The experiment is classed as cell-based, Escherichia coli. The conditions noted are these: for MIC: Escherichia coli. As to the method:
(§1) Each strain was grown in Mueller Hinton Broth (MH Broth), and 5 × 10^5 CFU/mL was used to evaluate antibacterial activity. Clinical carbapenem-resistant K. pneumoniae and E. coli isolates were collected at the AOU of Virology and Microbiology of the University of Campania “Luigi Vanvitelli”. […]
(§2) Table S1. Antibiotic resistance profile of K. pneumoniae and E. coli clinical isolates . MIC: Minimum Inhibitory
(§3) Concentration was expressed in µg/mL; S: Sensible; I: Intermediate; R: Resistant.
(§4) Antibiotic Resistance Profile of the Clinical Isolated Bacteria
(§5) Antibiotics MIC (µg/mL) Interpretation […]

The next experiment has as its system E. coli 716. The experiment is classed as cell-based, Escherichia coli. The note with it: for MIC: Escherichia coli. As to the method: as §1, §2, §3, §4, §5
The next experiment concerns E. coli 2267. The experiment is classed as cell-based, Escherichia coli. The conditions noted are these: for MIC: Escherichia coli. The method, then:
as §1, §2, §3, §4, §5

A further experiment deals with E. coli 1441. In kind it is cell-based, Escherichia coli. The note with it: for MIC: Escherichia coli. As to the method: as §1, §2, §3, §4, §5
A further experiment relates to E. coli 1376. The experiment is classed as cell-based, Escherichia coli. The conditions noted are these: for MIC: Escherichia coli. The method, then: as §1, §2, §3, §4, §5
A further experiment concerns K. pneumoniae 311. The experiment is classed as cell-based, Klebsiella pneumoniae. The note with it: for MIC: Klebsiella pneumoniae. The method, then: as §1, §2, §3, §4, §5
Another experiment concerns K. pneumoniae 1711. In kind it is cell-based, Klebsiella pneumoniae. The conditions noted are these: for MIC: Klebsiella pneumoniae. As to the method: as §1, §2, §3, §4, §5
A further experiment has as its system K. pneumoniae 1745. The experiment is classed as cell-based, Klebsiella pneumoniae. The note with it: for MIC: Klebsiella pneumoniae. As to the method: as §1, §2, §3, §4, §5
For another experiment, the system named is K. pneumoniae 1746. The experiment is classed as cell-based, Klebsiella pneumoniae. As to the method:
as §1, §2, §3, §4, §5

The mark [1] stands for this setting: Table S1, E. coli 2267, read-out: MIC.
Where [2] appears, read: Table S1, K. pneumoniae 1711, read-out: MIC.
Setting [3] is: Table S1, K. pneumoniae 1745, read-out: MIC.

For orientation: MIC means the smallest concentration in the dilution series that meets the test's criterion for growth inhibition. With `CO[C@@]1(NC(=O)C(C(=O)O)c2ccsc2)C(=O)N2[C@@H](C(=O)O)C(C)(C)S[C@@H]21` (stereo partly drawn) [Temocillin], the MIC with E. coli 3140 (Table S1, E. coli 3140, read-out: MIC) was more than 32 µg/mL; in the experiment with E. coli 716 (Table S1, E. coli 716, read-out: MIC), more than 32 µg/mL; in the experiment with E. coli 2267 (setting [1]), more than 32 µg/mL; with E. coli 1441 (Table S1, E. coli 1441, read-out: MIC) it was 8 µg/mL (≈ 19.3 µM); in the experiment on E. coli 1376 (Table S1, E. coli 1376, read-out: MIC) it was more than 32 µg/mL; in the experiment on K. pneumoniae 311 (Table S1, K. pneumoniae 311, read-out: MIC), more than 32 µg/mL. Besides, the MIC in the experiment with K. pneumoniae 1711 (setting [2]) and in the experiment on K. pneumoniae 1745 (setting [3]) was more than 32 µg/mL throughout. The Interpretation result was “R” in the experiment on E. coli 3140 (Table S1, E. coli 3140); “R” in the experiment on E. coli 716 (Table S1, E. coli 716); “R” with E. coli 2267 (Table S1, E. coli 2267); “S” in the experiment with E. coli 1441 (Table S1, E. coli 1441); “R” in the experiment with E. coli 1376 (Table S1, E. coli 1376); “R” in the experiment with K. pneumoniae 311 (Table S1, K. pneumoniae 311). Besides, the Interpretation entry is “R” with K. pneumoniae 1711 (Table S1, K. pneumoniae 1711) and “R” with K. pneumoniae 1745 (Table S1, K. pneumoniae 1745).

As for `NC[C@H]1O[C@H](O[C@H]2[C@H](O)[C@@H](O[C@H]3O[C@H](CO)[C@@H](O)[C@H](N)[C@H]3O)[C@H](N)C[C@@H]2N)[C@H](N)C[C@@H]1O` [Tobramycin], the MIC in the experiment on E. coli 3140 (3140) was not above 1 µg/mL; in the experiment on E. coli 716 (716) it was not above 1 µg/mL; in the experiment with E. coli 2267 (setting [1]), not above 1 µg/mL; against E. coli 1441 (1441), not above 1 µg/mL; with E. coli 1376 (1376), more than 4 µg/mL; in the experiment on K. pneumoniae 311 (311), more than 4 µg/mL. Besides, the MIC was more than 4 µg/mL in the experiment with K. pneumoniae 1711 (setting [2]); more than 4 µg/mL against K. pneumoniae 1746 (Klebsiella pneumoniae, 1746); more than 4 µg/mL in the experiment with K. pneumoniae 1745 (setting [3]). For the same compound, the Interpretation result is “S” in the experiment with E. coli 3140 (Table S1, E. coli 3140); “S” in the experiment on E. coli 716 (Table S1, E. coli 716); “S” with E. coli 2267 (Table S1, E. coli 2267); “S” with E. coli 1441 (Table S1, E. coli 1441); “R” in the experiment on E. coli 1376 (Table S1, E. coli 1376); “R” in the experiment with K. pneumoniae 311 (Table S1, K. pneumoniae 311). For the same compound, the Interpretation entry is given as “R” with K. pneumoniae 1711 (Table S1, K. pneumoniae 1711); “R” with K. pneumoniae 1746 (Table S1, K. pneumoniae 1746); “R” in the experiment with K. pneumoniae 1745 (Table S1, K. pneumoniae 1745).

Take `CC1(C)S[C@@H]2[C@H](NC(=O)[C@H](N)c3ccccc3)C(=O)N2[C@H]1C(=O)O` [Ampicillin]: the minimal inhibitory concentration (MIC) in the experiment on E. coli 3140 (3140), against E. coli 716 (716), with E. coli 2267 (2267), against E. coli 1441 (1441), in the experiment on E. coli 1376 (1376) and against K. pneumoniae 311 (311) was more than 8 µg/mL in each case. The minimum inhibitory concentration (MIC) against K. pneumoniae 1711 (1711) is more than 8 µg/mL; with K. pneumoniae 1746 (Klebsiella pneumoniae, 1746), more than 8 µg/mL; in the experiment on K. pneumoniae 1745 (1745), more than 8 µg/mL. In addition, the Interpretation result in the experiment on E. coli 3140 (Table S1, E. coli 3140) was “R”; with E. coli 716 (Table S1, E. coli 716) it was “R”; in the experiment with E. coli 2267 (Table S1, E. coli 2267), “R”; in the experiment with E. coli 1441 (Table S1, E. coli 1441) it was “R”; in the experiment with E. coli 1376 (Table S1, E. coli 1376), “R”; with K. pneumoniae 311 (Table S1, K. pneumoniae 311), “R”. Further, the Interpretation result is on record as “R” in the experiment with K. pneumoniae 1711 (Table S1, K. pneumoniae 1711); “R” in the experiment on K. pneumoniae 1746 (Table S1, K. pneumoniae 1746); “R” in the experiment with K. pneumoniae 1745 (Table S1, K. pneumoniae 1745).

Take Colistin: in the experiment with K. pneumoniae 1746 (Table S1, K. pneumoniae 1746), the Interpretation result is reported as “S” and the minimal inhibitory concentration (MIC) is reported as 0.25 µg/mL.

In the case of `C[C@H]1[C@H](NC(=O)/C(=N\OC(C)(C)C(=O)O)c2csc(N)n2)C(=O)N1S(=O)(=O)O` [Aztreonam], the Interpretation entry with E. coli 2267 (Table S1, E. coli 2267) is given as “R”; in the experiment on K. pneumoniae 1711 (Table S1, K. pneumoniae 1711), “R”; with K. pneumoniae 1745 (Table S1, K. pneumoniae 1745), “R”.

Turning to `CC(C)(O/N=C(\C(=O)N[C@@H]1C(=O)N2C(C(=O)[O-])=C(C[n+]3ccccc3)CS[C@H]12)c1csc(N)n1)C(=O)O` [Ceftazidime], the MIC is 16 µg/mL (≈ 29.3 µM) in the experiment on E. coli 3140 (3140); more than 16 µg/mL against E. coli 716 (716); more than 16 µg/mL in the experiment with E. coli 2267 (setting [1]); more than 16 µg/mL against E. coli 1441 (1441); more than 16 µg/mL in the experiment with E. coli 1376 (1376); more than 16 µg/mL with K. pneumoniae 311 (311). Also, the MIC with K. pneumoniae 1711 (setting [2]) was more than 16 µg/mL; in the experiment on K. pneumoniae 1746 (Klebsiella pneumoniae, 1746) it was more than 16 µg/mL; with K. pneumoniae 1745 (setting [3]) it was more than 16 µg/mL. Besides, the Interpretation result in the experiment with E. coli 3140 (Table S1, E. coli 3140) is on record as “R”; in the experiment on E. coli 716 (Table S1, E. coli 716) it was “R”; with E. coli 2267 (Table S1, E. coli 2267), “R”; in the experiment on E. coli 1441 (Table S1, E. coli 1441), “R”; in the experiment on E. coli 1376 (Table S1, E. coli 1376), “R”; in the experiment on K. pneumoniae 311 (Table S1, K. pneumoniae 311) it was “R”. The Interpretation entry in the experiment with K. pneumoniae 1711 (Table S1, K. pneumoniae 1711) is “R”; in the experiment on K. pneumoniae 1746 (Table S1, K. pneumoniae 1746) it was “R”; in the experiment with K. pneumoniae 1745 (Table S1, K. pneumoniae 1745), “R”.

As to `NCC[C@H](O)C(=O)N[C@@H]1C[C@H](N)[C@@H](O[C@H]2O[C@H](CN)[C@@H](O)[C@H](O)[C@H]2O)[C@H](O)[C@H]1O[C@H]1O[C@H](CO)[C@@H](O)[C@H](N)[C@H]1O` [Amikacin], the MIC in the experiment with E. coli 3140 (3140) is not above 4 µg/mL; in the experiment with E. coli 716 (716) it was not above 4 µg/mL; with E. coli 2267 (setting [1]), not above 4 µg/mL; against E. coli 1441 (1441), not above 4 µg/mL; in the experiment on E. coli 1376 (1376) it was more than 16 µg/mL; with K. pneumoniae 311 (311), not above 4 µg/mL. Moreover, the MIC in the experiment with K. pneumoniae 1711 (setting [2]) was not above 4 µg/mL; in the experiment on K. pneumoniae 1746 (Klebsiella pneumoniae, 1746), not above 4 µg/mL; in the experiment on K. pneumoniae 1745 (setting [3]) it was 8 µg/mL (≈ 13.7 µM). For the same compound, the Interpretation result in the experiment on E. coli 3140 (Table S1, E. coli 3140) is “S”; in the experiment with E. coli 716 (Table S1, E. coli 716), “S”; in the experiment with E. coli 2267 (Table S1, E. coli 2267), “S”; in the experiment with E. coli 1441 (Table S1, E. coli 1441) it was “S”; in the experiment on E. coli 1376 (Table S1, E. coli 1376) it was “R”; in the experiment on K. pneumoniae 311 (Table S1, K. pneumoniae 311), “S”. The Interpretation entry in the experiment on K. pneumoniae 1711 (Table S1, K. pneumoniae 1711) was “S”; in the experiment with K. pneumoniae 1746 (Table S1, K. pneumoniae 1746), “S”; in the experiment with K. pneumoniae 1745 (Table S1, K. pneumoniae 1745), “S”.
